# Patent publication US7713477B2, “Systems and methods for monitoring chemical and biological activities using differential measurements” (priority 2002, dated 2010)
# Key:
# [1] = test system: TF-1 cells; assay: Differential response of TF-1 cells against stimuli and controls at one, two and five minutes (FIG. 9B); assay type: cell-based; details: two and five minutes after stimulation, factor 100:1 dilution in d-PBS, 25 microliter into approximately 200 microliters cell suspension
# Text: FIG. 9B illustrates a second set of experiments, in which the differential responses of a population of TF-1 cells against numerous stimuli and controls are shown at one minute, two minutes, and five minutes after stimulation. In these experiments, a population of TF-1 cells was fractionated into two portions of equal volume and cell density immediately before the experiment. One of the two fractions received a potential stimulus, and the other a control in the form of a quantity of pure Dulbecco's phosphate buffered saline (d-PBS)equal to the quantity of d-PBS which contained the stimulant. […] Next, a series of factors and interleukins was compared against a reference sample. Each factor was introduced into one of two fractionated volumes containing TF-1 cells, via a 100:1 dilution of factor to d-PBS, followed by a 25 microliter addition of the diluted factor into approximately 200 microliters of the cell suspension. At the same time, the reference population of cells was prepared by adding 25 microliters of d-PBS alone into the second of the two cell fractions. Both fractions were then inserted into their respective channels in the apparatus, wherein said reference population was always inserted in the same channel, and measurements of the differential voltage were taken at pre-defined intervals over a five minute period. After each experiment, both channels were flushed with ˜2 ml of cell-free culture media, to insure that all previous cellular material and any other potential compounds from a given experiment were removed from the channel before the subsequent experiment.
# [2] = test system: TF-1 cells; details: stated as known, background knowledge; cited from earlier work
# [3] = molecular target: concanavalin-A (Canavalia ensiformis, UniProt P02866); assay: Binding of dextran in solution to concanavalin-A immobilized on the measurement probes (FIG. 6); details: phosphate buffered saline with calcium and magnesium, physiologic pH and osmolarity; regions 600b and 600c of FIG. 6
# Text: A common AC voltage of approximately 40 millivolts and at a frequency of approximately 1 KHz is placed upon measurement probes 313 and 323. The circuit continues across the interface of measurement probes 313 and 323, through the conductive solution in sample chambers 310 and 320, and completed via attachment of signal grounds 314 and 324.
# The voltage difference between measurement probes 313 and 317 is placed across the antipodal inputs of the first differential amplifier 221; similarly, the voltage across measurement probes 323 and 327 is placed across antipodal inputs of the second differential amplifier 222. The amplified differential voltages produced by 221 and 222 are fed into DC-converters 224 and 225 (e.g., root-mean-square averaging devices. The outputs 221a and 222a, being now of a DC nature, are input into antipodal inputs of the third differential amplifier 226, the resulting difference signal 227 being measured by a simple voltmeter 400, said voltmeter referenced to the common ground. This voltage is directly proportional to the difference in the voltage drops across the two pairs of measurement probes 313 and 317, and 323 and 327.
# FIG. 6 illustrates the result of a second experiment using the monitoring system of FIG. 3B. […]
# [4] = test system: TF-1 cells; assay: Differential response of TF-1 cells stimulated vs un-stimulated, monitoring system of FIG. 8 (FIG. 9A); assay type: cell-based
# Text: In this set of experiments, the monitoring system as shown in FIG. 8 was used to directly compare the activity of a known modification of the extra-cellular environment to controls. In the monitoring system of FIG. 8, two sample chambers (formed a fluid channels) 800a and 800b, along with four ports 801a-d, were fabricated using micromachining techniques on an acrylic substrate. The dimensions of the channels were approximately 250 micrometers wide, 100 micrometers deep, and with a total length of approximately 1.5 centimeters. The substrate was fastened in a water-tight manner, using thin film epoxy, to a pre-fabricated printed circuit board (not explicitly shown), on which eight gold-plated copper conductive traces 820a-d and 830a-d of width approximately 250 micrometers were deposited. Using the monitoring system architecture shown in FIG. 3D, in which the phase meter 223 was not present and DC-converters 224 and 225 comprised a device which converts and AC signal into a DC signal, whose amplitude is roughly the root-mean-square (RMS) of the AC amplitude. […]
Molecule,differential response over the three controls [1],known activity against TF-1 cells [2],other results
IL5: interleukin tested on TF-1 cells,significantly larger differential response over the three controls,,
"bovine serum albumin [BSA, reference compound]",,known not to affect TF-1 cells,
dextran,,,"binding of dextran to immobilized concanavalin-A, shown as new voltage level [3]: bound specifically to the immobilized concanavalin-A molecules"
granulocyte-macrophage colony stimulating factor [GM-CSF],significantly larger differential response over the three controls,induces cell proliferation in TF-1 cells,"time at which change in differential response begins ([4]; AC approximately 10 KHz, thirty minute experiment, change continues nearly monotonic): around eight; differential response of stimulated cells over the control ([4]; AC frequency approximately 10 KHz, about 2 million cells per milliliter, GM-CSF in quantity to elicit maximum response, followed thirty minutes): show a change in the differential response over the control"
"IL4: interleukin tested on TF-1 cells (protein, UniProt P05112 25-153, looked up) Interleukin-4: HKCDITLQEIIKTLNSLTEQKTLCTELTVTDIFAASKNTTEKETFCRAATVLRQFYSHHEKDTRCLGATAQQFHRHKQLIRFLKRLDRNLWGLAGLNSCPVKEANQSTLENFLERLKTIMREKYSKCSS",significantly larger differential response over the three controls,,
